Data as given in patent publication US12583824B2 (Genzyme Corporation, priority 2019, dated 2026).

biological target: T1, CFTR in primary human bronchial epithelial cells from a ΔF508 homozygous CF donor (CF-HBE cells) (Homo sapiens, UniProt P13569, DEL508-508); assay: TECC24 recording analysis of CFTR-mediated transepithelial chloride transport (AUC fold over DMSO); type: cell-based; conditions: 3 μM test agent, CF-HBE cells cultured 48 hours at 36.5° C.; ratio of test agent AUC of forskolin-stimulated IEQ divided by vehicle (DMSO) AUC
T1 construct: Primary human bronchial epithelial cells from a ΔF508 homozygous CF donor; host or cells: primary human bronchial epithelial cells (CF-HBE), ΔF508 homozygous donor
Procedure: Example 31: TECC24 AUC Fold Over DMSO @ 3 μM
The effects of a test agent on CFTR-mediated transepithelial chloride transport was measured using TECC24 recording analysis. Test agents were solubilized in DMSO. Solubilized test agents were mixed with incubation medium containing DMEM/F12, Ultroser G (2%; Crescent Chemical, catalog #67042), Hyclone Fetal Clone II (2%; GE Healthcare, catalog #SH30066.02), bovine brain extract (0.25%; Lonza, catalog #CC-4098), insulin (2.5 μg/mL), IL-13 (10 ng/mL), hydrocortisone (20 nM), transferrin (2.5 μg/mL), triiodothyronine (500 nM), ethanolamine (250 nM), epinephrine (1.5 μM), phosphoethanolamine (250 nM), and retinoic acid (10 nM). Primary human bronchial epithelial cells from a ΔF508 homozygous CF donor (CF-HBE cells; from University of North Carolina Cystic Fibrosis Tissue Procurement Center), grown on Transwell HTS 24-well cell culture inserts (Costar, catalog #3378), were exposed to test agents or controls dissolved in incubation medium. The CF-HBE cells were cultured at 36.5° C. for 48 hours before TECC24 recordings were performed in the presence or absence of test agent, a positive control or vehicle (DMSO).
Following incubation, the transwell cell culture inserts containing the test agent or control-treated CF-HBE cells were loaded onto a TECC24 apparatus (TECC v7 or MTECC v2; EP Design) to record the transepithelial voltage (VT) and resistance (TEER) using 4 AgCl electrodes per well configured in current-clamp mode. The apical and basolateral bath solutions both contained (in mM) 140 NaCl, 5 KCl, 2 CaCl2), 1 MgCl2, 10 Hepes, and 10 glucose (adjusted to pH 7.4 with NaOH). To inhibit basal Na+ absorption, the ENaC inhibitor benzamil (10 μM) was added to the bath. Then, the adenylate cyclase activator, forskolin (10 μM), was added to the bath to activate CFTR. The forskolin-stimulated Cl-transport was halted by addition of bumetanide (20 μM), an inhibitor of the basolateral chloride co-transporter NKCC1, to the bath to confirm that the detected signal was chloride dependent. VT and TEER recordings were digitally acquired at routine intervals using TECC or MTECC software (EP Design). VT and TEER were transformed into equivalent transepithelial Cl-current (IEQ), and the Area Under the Curve (AUC) of the IEQ time course between forskolin and bumetanide addition is generated using Excel (Microsoft). Efficacy is expressed as the ratio of the test agent AUC divided by vehicle AUC. EC50s based on AUC are generated using the non-linear regression log(agonist) vs. response function in Prism software (GraphPad) with Hill Slope fixed=1.
If a test agent increased the AUC of the forskolin-stimulated IEQ relative to vehicle in CF-HBE cells, and this increase was inhibited by bumetanide, then the test agent was considered a CFTR corrector.

T1 sequence (P13569 with tags, fused parts or gaps DEL508-508): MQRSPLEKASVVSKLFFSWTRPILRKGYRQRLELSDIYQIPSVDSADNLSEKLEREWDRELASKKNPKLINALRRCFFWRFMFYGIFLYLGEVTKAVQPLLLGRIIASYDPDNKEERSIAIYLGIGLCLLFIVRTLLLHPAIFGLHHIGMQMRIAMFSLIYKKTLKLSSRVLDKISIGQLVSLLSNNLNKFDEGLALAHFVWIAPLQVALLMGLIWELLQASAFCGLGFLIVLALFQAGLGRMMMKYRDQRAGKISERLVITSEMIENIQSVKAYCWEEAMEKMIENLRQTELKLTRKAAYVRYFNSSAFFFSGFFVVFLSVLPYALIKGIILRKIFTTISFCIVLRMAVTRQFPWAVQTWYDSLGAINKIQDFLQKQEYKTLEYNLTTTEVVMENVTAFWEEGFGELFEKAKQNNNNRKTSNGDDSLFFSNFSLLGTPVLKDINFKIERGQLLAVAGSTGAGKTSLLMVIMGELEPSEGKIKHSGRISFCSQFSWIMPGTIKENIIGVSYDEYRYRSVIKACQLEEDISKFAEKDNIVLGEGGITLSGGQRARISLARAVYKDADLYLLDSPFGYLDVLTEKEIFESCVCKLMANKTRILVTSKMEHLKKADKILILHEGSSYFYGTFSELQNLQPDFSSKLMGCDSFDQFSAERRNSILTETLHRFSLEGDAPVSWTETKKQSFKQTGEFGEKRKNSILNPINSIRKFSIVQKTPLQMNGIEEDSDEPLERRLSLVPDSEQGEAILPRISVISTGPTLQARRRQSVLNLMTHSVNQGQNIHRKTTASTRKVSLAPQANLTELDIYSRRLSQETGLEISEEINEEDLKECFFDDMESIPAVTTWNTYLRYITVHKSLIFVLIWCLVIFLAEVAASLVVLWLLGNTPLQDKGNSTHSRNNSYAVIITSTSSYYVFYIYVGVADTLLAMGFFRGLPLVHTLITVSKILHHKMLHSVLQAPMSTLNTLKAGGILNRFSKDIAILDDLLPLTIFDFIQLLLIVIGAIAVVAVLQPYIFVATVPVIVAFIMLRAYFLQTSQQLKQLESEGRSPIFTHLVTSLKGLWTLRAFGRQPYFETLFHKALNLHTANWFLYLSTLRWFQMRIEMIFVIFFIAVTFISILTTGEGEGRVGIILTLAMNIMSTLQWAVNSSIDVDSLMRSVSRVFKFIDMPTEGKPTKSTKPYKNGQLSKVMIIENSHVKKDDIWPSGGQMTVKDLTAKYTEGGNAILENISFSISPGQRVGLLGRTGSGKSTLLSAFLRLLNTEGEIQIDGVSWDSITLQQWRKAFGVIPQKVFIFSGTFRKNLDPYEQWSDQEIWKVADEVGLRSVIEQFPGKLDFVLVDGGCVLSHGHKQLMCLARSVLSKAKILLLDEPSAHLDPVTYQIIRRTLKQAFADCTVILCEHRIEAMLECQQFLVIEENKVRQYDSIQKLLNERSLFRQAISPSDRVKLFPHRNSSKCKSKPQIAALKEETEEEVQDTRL

Row | SMILES | TECC24 AUC vs. DMSO (@3 μM)
1 | CC(C)(C)COc1cc(-c2ccc(NS(=O)(=O)c3ccccc3)nc2-c2ccc(C(F)(F)F)cc2)ccc1Cl [Example 14, N-(5-(4-chloro-3-(neopentyloxy)phenyl)-6-(4-(trifluoromethyl)phenyl)pyridin-2-yl)benzenesulfonamide] | C (“C” refers to AUC < 2)
2 | Cc1cccc(C)c1-c1nc(NS(=O)(=O)c2ccccc2)ccc1-c1cccc(OCCC(C)(C)C)c1 [Example 15, N-(5-(3-(3,3-dimethylbutoxy)phenyl)-6-(2,6-dimethylphenyl)pyridin-2-yl)benzenesulfonamide] | A (“A “refers to AUC > 5)
3 | CC(C)c1ccccc1-c1nc(NS(=O)(=O)c2cccc(N)c2)ccc1-c1cccc(OCCC(C)(C)C)c1 [Example 16, 3-amino-N-(5-(3-(3,3-dimethylbutoxy)phenyl)-6-(2-isopropylphenyl)pyridin-2-yl)benzenesulfonamide] | A (“A “refers to AUC > 5)
4 | CC(C)(C)COc1cc(-c2ccc(NS(=O)(=O)c3cccc(N)c3)nc2-c2ccc(C(F)(F)F)cc2)ccc1Cl [Example 17, 3-amino-N-(5-(4-chloro-3-(neopentyloxy)phenyl)-6-(4-(trifluoromethyl)phenyl)pyridin-2-yl)benzenesulfonamide] | C (“C” refers to AUC < 2)
5 | CC(C)c1cc(Cl)ccc1-c1nc(NS(=O)(=O)c2ccccc2)ccc1-c1cccc(OC(F)(F)F)c1 [Example 19, N-(6-(4-chloro-2-isopropylphenyl)-5-(3-(trifluoromethoxy)phenyl)pyridin-2-yl)benzenesulfonamide] | A (“A “refers to AUC > 5)
6 | Cc1cccc(C)c1-c1nc(NS(=O)(=O)c2cccc(NC3CC(C)(O)C3)c2)ccc1-c1cccc(OCC(C)(C)C(F)(F)F)c1 (stereo not drawn) [Example 20] | A (“A “refers to AUC > 5)
7 | CCc1ccccc1-c1nc(NS(=O)(=O)c2cccc(N3CCCC(C)(C(=O)O)C3)n2)ccc1-c1cccc(OCC(F)(F)F)c1 (stereo not drawn) [Example 21, 1-[6-[[6-(2-ethylphenyl)-5-[3-(2,2,2-trifluoroethoxy)phenyl]-2-pyridyl]sulfamoyl]-2-pyridyl]-3-methyl-piperidine-3-carboxylic acid] | A (“A “refers to AUC > 5)
8 | CC(C)(C)COc1cc(-c2cnc(NS(=O)(=O)c3ccccc3)nc2-c2ccc(C(F)(F)F)cc2)ccc1Cl [Example 22, 5-(4-chloro-3-(neopentyloxy)phenyl)-2-((phenylsulfonyl)-12-azaneyl)-4-(4-(trifluoromethyl)phenyl)pyrimidine] | C (“C” refers to AUC < 2)
9 | CC(C)(C)COc1cc(-c2cnc(NS(=O)(=O)c3cccc(N)c3)nc2-c2ccc(C(F)(F)F)cc2)ccc1Cl [Example 23] | B (“B” refers to AUC between 2-5)
10 | CC(C)(C)COc1cc(-c2cnc(NS(=O)(=O)c3cccc(NS(C)(=O)=O)c3)nc2-c2ccc(C(F)(F)F)cc2)ccc1Cl [Example 24, N-(5-(4-chloro-3-(neopentyloxy)phenyl)-4-(4-(trifluoromethyl)phenyl)pyrimidin-2-yl)-3-(methylsulfonamido)benzenesulfonamide] | C (“C” refers to AUC < 2)
11 | CC(C)(C)COc1cc(-c2cnc(NS(=O)(=O)c3cccnc3)nc2-c2ccc(C(F)(F)F)cc2)ccc1Cl [Example 25, N-(5-(4-chloro-3-(neopentyloxy)phenyl)-4-(4-(trifluoromethyl)phenyl)pyrimidin-2-yl)pyridine-3-sulfonamide] | C (“C” refers to AUC < 2)
12 | CC(C)(C)COc1cc(-c2cnc(NS(=O)(=O)c3cccc(Cl)n3)nc2-c2ccc(C(F)(F)F)cc2)ccc1Cl [Example 26, 5-(4-chloro-3-(neopentyloxy)phenyl)-2-(((6-chloropyridin-2-yl)sulfonyl)-12-azaneyl)-4-(4-(trifluoromethyl)phenyl)pyrimidine] | C (“C” refers to AUC < 2)
